Each structure is given as a SMILES string.

This assay concerns the target DNA from salmon sperm. Kind of assay: UV-Vis spectrophotometric titration, association with DNA from salmon sperm. The format is binding. The following applies: 1:1 complex, Tris-HCl buffer pH 7.44, CDNA 2.5 × 10^–7 M, BindFit. How it is done: The interaction of GIS with a series of synthesized pillar[5]arenes 1–4 and DNA was studied by UV-Vis spectroscopy. UV-Vis spectroscopy is a universal method to study the complex properties of synthetic receptors. The interaction of GIS with DNA from salmon sperm was initially studied (Figure 5). DNA from salmon sperm was chosen as a model substrate due to its relatively low molecular weight and small size. The experiments were carried out in a Tris-HCl buffer system (pH = 7.44).
The association constants were determined by spectrophotometric titration to quantify the interaction of DNA with GIS. The UV-Vis spectra of the DNA–GIS system were recorded in such a way that the DNA concentration remained constant (2.5 × 10^–7 M), and the herbicide concentration ratio increased from 1:0.3 to 1:10 (Figure 5b). The obtained experimental data were processed by the BindFit program. The association constant of a 1:1 complex was calculated (Figure S23). The logarithm of the association constant of DNA with GIS was determined as lgKa = 4.92. […] However, in this case, the association constant of the complexes was determined with a large error.
Further, the interaction of macrocycles 1–4 with the DNA from salmon sperm in Tris-HCl was studied by UV-Vis spectroscopy. […] The association constant of compound 4-DNA complex was determined by spectrophotometric titration. […] The logarithm of the association constant of pillar[5]arene 4 with the DNA was determined as lgKa (4–DNA) = 5.24.
The association constant of compound 1-DNA complex was also determined by spectrophotometric titration (Figure S25b). The logarithm of the association constant of pillar[5]arene 1 with DNA was determined as lgKa(1–DNA) = 4.88 (Figure S27). […]
buffer solution. The UV spectra of the solutions were then recorded. The stability constant of complex was calculated by Bindfit. […]
volume of 3 mL with Tris‐HCl buffer solution. The UV spectra of the solutions were then recorded. The stability constant of each complex was calculated by Bindfit. […]
stability constant of complex was calculated by Bindfit. […]

In the case of `C[N+](C)(CCCNC(=O)COc1cc2c(OCC(=O)NCCC[N+](C)(C)CC(=O)N[C@@H](Cc3ccccc3)C(=O)[O-])cc1Cc1cc(OCC(=O)NCCC[N+](C)(C)CC(=O)N[C@@H](Cc3ccccc3)C(=O)[O-])c(cc1OCC(=O)NCCC[N+](C)(C)CC(=O)N[C@@H](Cc1ccccc1)C(=O)[O-])Cc1cc(OCC(=O)NCCC[N+](C)(C)CC(=O)N[C@@H](Cc3ccccc3)C(=O)[O-])c(cc1OCC(=O)NCCC[N+](C)(C)CC(=O)N[C@@H](Cc1ccccc1)C(=O)[O-])Cc1cc(OCC(=O)NCCC[N+](C)(C)CC(=O)N[C@@H](Cc3ccccc3)C(=O)[O-])c(cc1OCC(=O)NCCC[N+](C)(C)CC(=O)N[C@@H](Cc1ccccc1)C(=O)[O-])Cc1cc(OCC(=O)NCCC[N+](C)(C)CC(=O)N[C@@H](Cc3ccccc3)C(=O)[O-])c(cc1OCC(=O)NCCC[N+](C)(C)CC(=O)N[C@@H](Cc1ccccc1)C(=O)[O-])C2)CC(=O)N[C@@H](Cc1ccccc1)C(=O)[O-]` [Compound 4, 4,8,14,18,23,26,28,31,32,35-Decakis-[(N-[3’-dimethyl({oxidocarbonyl[S-benzyl]methyl}aminocarbonylmethyl)ammonio]propyl)aminocarbonylmethoxy]-pillar[5]arene], the “lgKa, logarithm of the association constant with DNA” value is 5.24.
